In ChEMBL document CHEMBL1201862, “PubChem BioAssay data set” (2004):
Activity calls are given as the source filed them.

Experiments:
[1] = molecular target: T1, Leucine aminopeptidase (Plasmodium falciparum 3D7, UniProt Q8IL11); test: P. falciparum M17LAP inhibitors, primary screen, biochemical, fluorogenic H-Leu-NHMec substrate, 1536-well (AID 1619); assay type: functional
T1 sequence (Q8IL11 whole entry): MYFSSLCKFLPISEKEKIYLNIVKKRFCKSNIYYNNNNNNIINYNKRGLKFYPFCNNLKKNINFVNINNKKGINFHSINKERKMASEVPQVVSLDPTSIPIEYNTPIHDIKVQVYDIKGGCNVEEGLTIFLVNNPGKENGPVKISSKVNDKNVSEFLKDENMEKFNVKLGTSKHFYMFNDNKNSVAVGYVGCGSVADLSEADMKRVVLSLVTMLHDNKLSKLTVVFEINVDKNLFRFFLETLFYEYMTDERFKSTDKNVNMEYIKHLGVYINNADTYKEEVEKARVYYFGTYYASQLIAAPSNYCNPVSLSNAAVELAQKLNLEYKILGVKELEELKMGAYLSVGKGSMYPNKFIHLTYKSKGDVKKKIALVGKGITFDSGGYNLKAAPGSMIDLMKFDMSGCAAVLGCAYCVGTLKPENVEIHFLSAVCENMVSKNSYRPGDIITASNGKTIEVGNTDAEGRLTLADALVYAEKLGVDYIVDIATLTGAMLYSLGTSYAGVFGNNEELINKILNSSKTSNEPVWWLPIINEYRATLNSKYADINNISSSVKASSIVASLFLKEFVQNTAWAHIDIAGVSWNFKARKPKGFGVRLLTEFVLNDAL

[2] = molecular target: Procathepsin L (Homo sapiens, UniProt P07711); test: CTSL1 protease inhibition – biochemical, QFRET, 1536-well, counter-screen for M1/M17 aminopeptidase inhibitor project, dose response (AID 2214)
Sequence of Procathepsin L (P07711 whole entry): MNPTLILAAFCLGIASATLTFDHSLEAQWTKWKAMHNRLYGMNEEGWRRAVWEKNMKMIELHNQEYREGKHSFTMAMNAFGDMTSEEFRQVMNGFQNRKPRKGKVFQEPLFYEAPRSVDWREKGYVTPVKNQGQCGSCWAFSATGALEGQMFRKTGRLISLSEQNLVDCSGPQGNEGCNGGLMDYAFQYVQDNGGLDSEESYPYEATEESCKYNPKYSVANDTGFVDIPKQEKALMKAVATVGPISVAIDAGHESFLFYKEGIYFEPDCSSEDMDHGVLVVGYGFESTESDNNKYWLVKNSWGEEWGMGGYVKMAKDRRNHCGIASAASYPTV

[3] = molecular target: T2, Aspartyl aminopeptidase (Plasmodium falciparum 3D7, UniProt Q8I2J3); test: Counterscreen for inhibitors of M1 and M17 aminopeptidases: QFRET-based biochemical high throughput dose response assay for inhibitors of the Plasmodium falciparum M18 Aspartyl Aminopeptidase (PFM18AAP). [Related PubChem assays: 1619 (Screening assay (M17LAP inhibitors).), 1445 (Screening assay (M1AAP inhibitors).)]
T2 sequence (Q8I2J3 whole entry): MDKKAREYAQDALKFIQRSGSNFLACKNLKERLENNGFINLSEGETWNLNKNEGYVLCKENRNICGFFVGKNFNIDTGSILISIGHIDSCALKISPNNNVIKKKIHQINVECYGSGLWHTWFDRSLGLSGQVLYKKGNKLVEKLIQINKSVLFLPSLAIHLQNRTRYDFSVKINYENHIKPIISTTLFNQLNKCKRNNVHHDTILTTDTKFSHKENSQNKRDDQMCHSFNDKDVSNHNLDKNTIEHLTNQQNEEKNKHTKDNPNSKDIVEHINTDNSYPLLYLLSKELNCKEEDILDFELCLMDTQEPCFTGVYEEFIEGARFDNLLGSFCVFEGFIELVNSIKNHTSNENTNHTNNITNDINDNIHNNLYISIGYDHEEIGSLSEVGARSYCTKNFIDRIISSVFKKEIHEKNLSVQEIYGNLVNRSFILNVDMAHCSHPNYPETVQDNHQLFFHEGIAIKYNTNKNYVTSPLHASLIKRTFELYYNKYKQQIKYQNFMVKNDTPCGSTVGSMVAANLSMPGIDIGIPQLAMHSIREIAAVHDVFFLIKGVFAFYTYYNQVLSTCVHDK

[4] = antiviral protection against BTV-induced cell death – arbovirus, BSR cells, confirmation (AID 1250); assay type: functional;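 note: protection from viral cytopathic effect measured as cell viability by ATP luminescence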
[5] = system: HEK293; test: cells; assay type: functional, cell-based; conditions: Homo sapiens
[6] = system: HEK293; test: inhibition of NOD1-driven NF-kB reporter – cell-based, luminescence, uHTS, primary screen (AID 1578); assay type: functional; conditions: Homo sapiens
[7] = fluconazole-exposed Candida albicans growth modulators – fluorescence, retest, confirmation (AID 2467); assay type: functional, cell-based
[8] = molecular target: T3, Nucleotide-binding oligomerization domain-containing protein 1 (Homo sapiens, UniProt Q9Y239); test: blockers of NOD1 pathway activity – revised, SAR follow-up (AID 2333); assay type: functional
T3 sequence (Q9Y239 whole entry): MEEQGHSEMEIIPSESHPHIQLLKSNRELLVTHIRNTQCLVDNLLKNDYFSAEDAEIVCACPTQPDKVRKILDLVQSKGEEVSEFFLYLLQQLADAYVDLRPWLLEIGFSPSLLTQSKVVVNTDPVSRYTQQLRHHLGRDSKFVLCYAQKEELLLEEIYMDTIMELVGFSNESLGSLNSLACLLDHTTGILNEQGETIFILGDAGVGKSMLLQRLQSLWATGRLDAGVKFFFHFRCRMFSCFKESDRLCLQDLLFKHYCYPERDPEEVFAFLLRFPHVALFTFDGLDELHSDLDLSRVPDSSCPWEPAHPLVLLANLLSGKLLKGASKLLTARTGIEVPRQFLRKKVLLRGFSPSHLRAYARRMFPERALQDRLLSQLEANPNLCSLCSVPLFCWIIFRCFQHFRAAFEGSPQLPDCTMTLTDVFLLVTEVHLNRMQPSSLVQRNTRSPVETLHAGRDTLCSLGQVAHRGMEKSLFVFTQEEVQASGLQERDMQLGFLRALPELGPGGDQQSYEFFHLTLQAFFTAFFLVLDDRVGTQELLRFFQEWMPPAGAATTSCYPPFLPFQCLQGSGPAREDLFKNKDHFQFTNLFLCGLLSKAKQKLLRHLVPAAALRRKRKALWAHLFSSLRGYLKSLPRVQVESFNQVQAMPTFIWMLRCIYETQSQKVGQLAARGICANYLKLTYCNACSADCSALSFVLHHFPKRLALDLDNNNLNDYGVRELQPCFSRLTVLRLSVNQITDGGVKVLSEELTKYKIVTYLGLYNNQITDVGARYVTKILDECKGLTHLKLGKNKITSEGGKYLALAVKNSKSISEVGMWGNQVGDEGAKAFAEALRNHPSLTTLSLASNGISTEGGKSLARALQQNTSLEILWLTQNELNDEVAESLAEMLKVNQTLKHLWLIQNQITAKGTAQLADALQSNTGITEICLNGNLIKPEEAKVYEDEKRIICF

[9] = molecular target: T4, Serine/threonine-protein phosphatase (Candida dubliniensis (strain CD36 / CBS 7987 / NCPF 3949 / NRRLY-17841) (Yeast), UniProt B9W6M3); test: blockers of CaCl2-induced CDRE-lacZ signaling – S. cerevisiae, luminescence, secondary, dose response (AID 2388); assay type: functional, cell-based;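 note: yeast reporter cells carrying a calcineurin-responsive lacZ construct stimulated with calcium chloride; luminescent beta-galactosidase reporter signal in whole cells rather than isolated phosphatase activity; potency for inhibition where a drop in reporter signal means calcineurin blockade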
T4 sequence (B9W6M3 whole entry): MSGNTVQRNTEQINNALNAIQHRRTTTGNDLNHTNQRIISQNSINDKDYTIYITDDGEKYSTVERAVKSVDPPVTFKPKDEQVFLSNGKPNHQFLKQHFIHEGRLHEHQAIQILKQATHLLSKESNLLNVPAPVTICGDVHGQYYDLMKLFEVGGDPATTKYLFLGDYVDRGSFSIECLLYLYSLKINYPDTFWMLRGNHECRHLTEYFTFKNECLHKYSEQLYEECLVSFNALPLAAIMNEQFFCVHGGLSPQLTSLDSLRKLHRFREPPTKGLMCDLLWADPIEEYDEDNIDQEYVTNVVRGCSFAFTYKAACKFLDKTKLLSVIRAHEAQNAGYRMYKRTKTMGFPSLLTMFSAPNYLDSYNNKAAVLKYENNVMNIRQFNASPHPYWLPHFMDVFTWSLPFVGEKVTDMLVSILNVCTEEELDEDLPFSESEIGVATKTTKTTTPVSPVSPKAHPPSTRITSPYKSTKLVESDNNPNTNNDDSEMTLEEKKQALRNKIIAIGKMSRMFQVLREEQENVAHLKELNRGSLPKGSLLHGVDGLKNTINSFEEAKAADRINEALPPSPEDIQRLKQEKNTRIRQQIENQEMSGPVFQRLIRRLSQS

[10] = molecular target: ATP-dependent molecular chaperone HSP82 (Candida albicans (strain WO-1) (Yeast), UniProt C4YTQ8); test: steroid-induced GRE reporter decrease in yeast – S. cerevisiae, luminescence, Hsp90 inhibitor project, dose response (AID 2400); assay type: functional, cell-based;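 note: beta-galactosidase luminescence from glucocorticoid response element reporter as proxy for Hsp90 function; inhibitor potency where signal loss means Hsp90 inhibition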
Sequence of ATP-dependent molecular chaperone HSP82 (C4YTQ8 whole entry, the tested form may be a part): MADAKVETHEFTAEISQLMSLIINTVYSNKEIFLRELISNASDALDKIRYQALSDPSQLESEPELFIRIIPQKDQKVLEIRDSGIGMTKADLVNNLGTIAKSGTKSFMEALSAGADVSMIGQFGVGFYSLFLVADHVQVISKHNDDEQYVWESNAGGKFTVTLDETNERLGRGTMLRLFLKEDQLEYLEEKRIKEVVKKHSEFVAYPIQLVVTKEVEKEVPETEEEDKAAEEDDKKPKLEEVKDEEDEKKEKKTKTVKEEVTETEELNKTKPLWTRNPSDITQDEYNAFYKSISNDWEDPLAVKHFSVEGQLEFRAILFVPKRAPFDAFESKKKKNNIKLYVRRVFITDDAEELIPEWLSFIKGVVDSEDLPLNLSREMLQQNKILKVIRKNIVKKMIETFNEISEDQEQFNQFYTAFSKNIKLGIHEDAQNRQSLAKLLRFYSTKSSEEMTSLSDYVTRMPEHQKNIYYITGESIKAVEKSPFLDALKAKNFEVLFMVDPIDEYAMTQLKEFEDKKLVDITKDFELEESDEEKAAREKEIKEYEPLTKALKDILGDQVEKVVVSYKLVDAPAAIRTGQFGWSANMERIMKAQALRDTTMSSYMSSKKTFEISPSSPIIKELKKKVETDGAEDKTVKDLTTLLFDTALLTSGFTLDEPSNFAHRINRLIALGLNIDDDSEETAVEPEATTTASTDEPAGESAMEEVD

[11] = molecular target: Nucleotide-binding oligomerization domain-containing protein 2 (Homo sapiens, UniProt Q9HC29); test: inhibition of NOD2-driven NF-kB reporter – cell-based, luminescence, uHTS, HEK293 (AID 1566); assay type: functional
Sequence of Nucleotide-binding oligomerization domain-containing protein 2 (Q9HC29 whole entry, the tested form may be a part): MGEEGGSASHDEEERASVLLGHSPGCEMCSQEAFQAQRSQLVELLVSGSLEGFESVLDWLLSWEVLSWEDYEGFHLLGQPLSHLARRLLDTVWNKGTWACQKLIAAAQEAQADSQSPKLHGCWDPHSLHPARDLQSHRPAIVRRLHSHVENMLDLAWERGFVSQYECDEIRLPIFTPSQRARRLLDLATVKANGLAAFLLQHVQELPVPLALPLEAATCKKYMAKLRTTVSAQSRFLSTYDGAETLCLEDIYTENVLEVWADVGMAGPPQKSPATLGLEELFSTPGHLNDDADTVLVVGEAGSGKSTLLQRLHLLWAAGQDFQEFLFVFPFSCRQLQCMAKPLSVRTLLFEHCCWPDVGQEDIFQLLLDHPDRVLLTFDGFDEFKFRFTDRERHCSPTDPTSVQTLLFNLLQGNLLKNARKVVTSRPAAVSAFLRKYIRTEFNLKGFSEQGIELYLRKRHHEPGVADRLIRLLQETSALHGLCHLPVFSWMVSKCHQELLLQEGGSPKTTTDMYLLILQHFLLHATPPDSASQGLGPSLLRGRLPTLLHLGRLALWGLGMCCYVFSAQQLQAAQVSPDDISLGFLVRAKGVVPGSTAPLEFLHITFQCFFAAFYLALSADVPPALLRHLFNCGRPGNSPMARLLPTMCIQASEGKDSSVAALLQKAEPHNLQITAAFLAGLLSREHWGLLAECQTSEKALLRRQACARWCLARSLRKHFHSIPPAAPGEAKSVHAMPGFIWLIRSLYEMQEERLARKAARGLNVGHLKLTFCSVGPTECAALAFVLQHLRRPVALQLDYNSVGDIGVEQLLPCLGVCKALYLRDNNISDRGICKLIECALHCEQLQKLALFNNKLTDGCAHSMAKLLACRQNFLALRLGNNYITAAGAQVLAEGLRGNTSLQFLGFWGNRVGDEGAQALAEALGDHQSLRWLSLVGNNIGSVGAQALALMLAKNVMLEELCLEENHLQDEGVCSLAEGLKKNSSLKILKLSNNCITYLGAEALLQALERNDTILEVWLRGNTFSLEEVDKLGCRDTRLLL

[12] = reduction of Shn3 3'UTR-driven luciferase in osteoblasts – cell-based, Clone20 osteoblasts, firefly luciferase, cherry-picked, dose response (AID 624132); assay type: functional;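 note: firefly luciferase luminescence from reporter carrying the Shn3 3'UTR in osteoblasts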
[13] = system: HEK293; test: cells; assay type: functional, cell-based; conditions: Homo sapiens; remark: listed apart in the source
[14] = molecular target: Tumor necrosis factor (Homo sapiens, UniProt P01375); test: analog potency on TNFa NF-kB signaling – cell-based, revised, SAR follow-up (AID 2337); assay type: functional
Sequence of Tumor necrosis factor (P01375 whole entry): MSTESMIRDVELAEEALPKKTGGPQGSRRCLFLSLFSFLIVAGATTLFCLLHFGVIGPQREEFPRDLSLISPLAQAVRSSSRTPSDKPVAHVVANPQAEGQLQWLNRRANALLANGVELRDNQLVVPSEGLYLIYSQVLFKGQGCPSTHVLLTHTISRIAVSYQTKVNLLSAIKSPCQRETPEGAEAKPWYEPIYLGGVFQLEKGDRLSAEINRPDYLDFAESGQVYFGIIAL

[15] = loss of viability in HepG2 cells – cell-based, CellTiter-Glo, cherry-picked, cytotoxicity control for Shn3 inhibitor project, dose response (AID 624134); assay type: functional
[16] = system: HEK293; test: cells; assay type: functional, cell-based; conditions: Homo sapiens; remark: listed apart in the source
[17] = system: HEK293; test: cells; conditions: Homo sapiens
[18] = system: HEK293; test: NOD2 signaling inhibitors in MDP-stimulated cells, cell-based, uHTS, luminescence (AID 2001); assay type: functional; conditions: Homo sapiens
[19] = non-specific 3'UTR reporter inhibition in Clone20-Shn3RL – cell-based, Renilla luciferase, cherry-picked, counter-screen for Shn3 inhibitor project, dose response (AID 624133); assay type: functional
[20] = NIH-3T3 fibroblast cytotoxicity, dose response, cytotoxicity control, cell-based, fluorescence, Alamar Blue, secondary assay (AID 2327); assay type: functional;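 note: NIH-3T3 mouse fibroblasts cultured with fluconazole at 8 µg/mL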

In the case of `COc1ccc(OC)c(NC(=O)C2C(C(=O)O)C3(Cl)C(Cl)=C(Cl)C2(Cl)C3(Cl)Cl)c1` (stereo not drawn), the IC50 [1] is reported as < 1 µM (active), the IC50 [2] is reported as > 59.6 µM (not active) and the IC50 [3] is reported as > 73.5 µM (not active).

With `COC(=O)/C=C/c1sc2nc(C)cc(C)c2c1/N=C/N(C)C` the IC50 [4] was 34.4 µM (active).

In the case of `O=C(CSc1nccc(=O)[nH]1)Nc1ccc(F)c(Cl)c1`, the IC50 [1] is reported as 6.03 µM (active), the IC50 [2] is reported as > 59.6 µM (not active) and the IC50 [3] is reported as > 73.5 µM (not active).

With `O=C(c1ccc(Cn2c(=S)[nH]c3ccccc3c2=O)cc1)N1CCN(c2ccccn2)CC1` the IC50 [5] was 13.9 µM (active), the EC50 [6] was 9 µM (active) and the EC50 [7] was 0.549 µM (active). For the same molecule, the IC50 [8] was 5.3 µM (active), the EC50 [9] was > 180 µM (inactive) and the EC50 [10] was > 150 µM (inactive). The EC50 [11] was 5.49 µM (active), the AC50 [12] was 6.34 µM (active) and the IC50 [13] was 6.05 µM (active). The IC50 [14] was 7.61 µM (active), the AC50 [15] was 59.2 µM (active) and the IC50 [16] was > 20 µM (inactive). For the same molecule, the IC50 [17] was 12.6 µM (active), the IC50 [18] was 7.1 µM (active) and the AC50 [19] was 31.4 µM (active). For the same molecule, the EC50 [20] was 12.4 µM (inconclusive).
